Assay results published in patent US20170281541A1, “LIPOSOME-BASED MUCUS-PENETRATING PARTICLES FOR MUCOSAL DELIVERY” (The Johns Hopkins University, priority 2014, published 2017).

Assay: CEST imaging in vivo (diaCEST MRI) after intravaginal administration
Set-up: species or system mice
Procedure: Naturally cycling, estrus phase female mice were used for the intravaginal distribution study and the in vivo CEST imaging studies. In brief, female CF-1 mice (6-8 weeks old, Harlan, Indianapolis, Ind.) were housed in a reversed light cycle facility (12-hour light/12-hour dark). Mice were selected for external estrus appearance, which was confirmed upon dissection. All animal studies were performed in accordance to protocols approved by the Institutional Animal Care and Use Committee (IACUC) at the Johns Hopkins University.
Mice were anesthetized using isoflurane and positioned in a 11.7 T horizontal bore Bruker Biospec scanner (Bruker Biosciences, Billerica, Mass.). Twenty microliters of BA-loaded 7 mol %-PEG liposome suspension (4 mg BA/mL) or free BA solution at a equivalent dose were administered intravaginally via a customized catheter. Imaging was performed before and at 30 min-intervals after the intravaginal administration up to 1.5 h. Axial images were acquired at ˜2 mm above the tip of the catheter that was inserted ˜5 mm deep from the vaginal opening. […]
MR images were processed using custom-written Matlab scripts with the CEST contrast quantified by calculating the asymmetry in the magnetization transfer ratio (MTRasym) using MTRasym=(S−Δω−S+Δω)/S0 for NH protons at the frequency offset of BA from water (Δω)=5 ppm. […]

Which “vaginal retention time / duration of CEST contrast” value (intravaginal, mice, imaging up to 1.5 h) does the source give for `O=C1CC(=O)NC(=O)N1` [unencapsulated BA, barbituric acid] here?
The value was ~30 min.

And the “vaginal retention by diaCEST MRI” value (liposomal vs unencapsulated BA)?
The value was “much shorter vaginal retention time”.
